Experimental data taken from patent publication US11161830B2, “4-pyridone compound or salt thereof, and pharmaceutical composition and formulation including same” (priority 2017, dated 2021).
Like-named read-outs stand apart in the source and are kept apart here.

Tested on: HBV (genotype AeUS)
Test: Test Example 2-1: anti-HBV assay in PXB-cells (fresh human hepatocytes)
Assay type: cell-based, hepatitis B virus
Conditions: PXB-cells infected with HBV genotype AeUS, culture supernatant on day 32 post infection
Method: Using fresh human hepatocytes (PXB-cells, manufactured by PhenixBio Co., Ltd.) collected from a PXB mouse (a chimeric mouse with human hepatocytes), the anti-HBV activity of the representative compounds was evaluated in the following procedure.
The following was used as a medium:
DMEM (manufactured by Sigma)+0.25 μg/mL insulin (manufactured by Wako)+1% penicillin/streptomycin. (manufactured by Sigma)+20 mmol/L HEPES (manufactured by Sigma)+15 μg/mL L-proline (manufactured by Sigma)+50 nmol/L dexamethasone (manufactured by Sigma)+5 ng/mL EGF (manufactured by Peprotech)+0.1 mmol/L ascorbic acid 2-phosphate (manufactured by Wako)+10% FBS+2% DMSO
Each of the test compounds) was further added to the medium to prepare a test solution containing each of the test compounds at various concentrations.
(1) PXB-cells seeded at a seeding density of 2.1×10^5 cells/cm^2 in a 96-well microliter plate were incubated in a 5% CO2 incubator at 37° C. until a day on which the cells were infected.
(2) HBV (genotype AeUS) derived from a PXB mouse serum was suspended in the medium containing 4% PEG-8000, and added to the plate of (1) at about 10 copies/cell such that the PXB cells were infected (100 μL/well), and the plate was incubated in a 5% CO2 incubator at 37° C. for 1 day.
(3) The culture supernatant on day 1 post infection was removed and the cells were washed three times with DMEM containing 10% FBS and 1% penicillin/streptomycin. Then, the medium was added to the plate (100 μL/well) and the plate was incubated in a 5% CO2 incubator at 37° C. for 1 day.
(4) The culture supernatant on day 2 post infection was removed and the cells were washed three times with DMEM containing 10% FBS and 1% penicillin/streptomycin. Then, the medium was added to the plate (100 μL/well) and the plate was incubated in a 5% CO2 incubator at 37° C. for 5 days.
(5) The culture supernatant on day 7 post infection was removed, the medium was added to the plate (100 μL/well), and the plate was incubated in a 5% CO2 incubator at 37° C. for 5 days.
(6) The culture supernatant on day 12 post infection was removed, the medium was added to the plate (100 μL/well), and the plate was incubated in a 5% CO2 incubator at 37° C. for 5 days.
(§1) (7) The culture supernatant on day 17 post infection was removed, the test solution was added to the plate (100 μL/well), and the plate was incubated in a 5% CO2 incubator at 37° C. for 5 days. As a control without the compound added, the medium was added to the plate (100 μL/well) and the plate was incubated in a 5% CO2 incubator at 37° C. for 5 days.
as §1, with “(8)” for “(7)”, “22” for “17”
as §1, with “(9)” for “(7)”, “27” for “17”
(10) The culture supernatant on day 32 post infection was collected.
(11) The collected culture supernatant on day 32 post infection was purified with a QIAamp (registered trademark) DNA Blood Mini Kit (manufactured by QIAGEN). The amount of HBV-DNA in the obtained solution was absolutely quantified by a real-time PCR method. In addition, the amount of HBsAg in the culture supernatant was absolutely quantified by chemiluminescent enzyme immunoassay using Lumipulse (registered trademark) HBsAg-HQ (manufactured by Fujirebio Inc.). A relative viral load (%) with respect to a control without the compound added was each calculated. […]

[1] = Hepatitis B virus, Hepatocyte, read-out: IC50 HBV-DNA
[2] = Hepatitis B virus, Hepatocyte, read-out: IC50 HBsAg

Row | SMILES | IC50 [1] [nM] | IC50 [2] [nM] | IC50 (read-out: IC50 HBV-DNA) [nM] | IC50 (read-out: IC50 HBsAg) [nM]
1 | COC[C@H]1CCCN1c1nc2ccc(-n3cc(C(=O)O)c(=O)cc3-c3ccc(N4CCCC4)c(Cl)c3)cc2s1 [Example 6-3, (R)-6-(3-chloro-4-(pyrrolidin-1-yl)phenyl)-1-(2-(2-(methoxymethyl)pyrrolidin-1-yl)benzo[d]thiazol-6-yl)-4-oxo-1,4-dihydropyridine-3-carboxylic acid] | 30 | 57 |  | 
2 | COCCN(CCOC)c1nc2ccc(-n3cc(C(=O)O)c(=O)cc3-c3ccc(N4CCCC4)c(Cl)c3)cc2s1 [Example 6-2] |  |  | 25 | 81
3 | COCCN(CCOC)c1nc2ccc(-n3cc(C(=O)O)c(=O)cc3-c3ccc(N4CC[C@@H](OC)C4)cc3)cc2s1 [Example 10-3] |  |  | 47 | 56
4 | CCN1CCN(c2nc3ccc(-n4cc(C(=O)O)c(=O)cc4-c4ccc(N5CC[C@@H](OC)C5)cc4)cc3s2)CC1 [Example 10-4, (R)-1-(2-(4-ethylpiperazin-1-yl)benzo[d]thiazol-6-yl)-6-(4-(3-methoxypyrrolidin-1-yl)phenyl)-4-oxo-1,4-dihydropyridine-3-carboxylic acid] | 61 | 78 |  | 
5 | COCCN1CCN(c2nc3ccc(-n4cc(C(=O)O)c(=O)cc4-c4ccc(N5CCCC5)cc4)cc3s2)CC1 [Example 3-14, 1-(2-(4-(2-methoxyethyl)piperazin-1-yl)benzo[d]thiazol-6-yl)-4-oxo-6-(4-(pyrrolidin-1-yl)phenyl)-1,4-dihydropyridine-3-carboxylic acid] | 24 | 89 |  | 
6 | COCCN(CCOC)c1nc2ccc(-n3cc(C(=O)O)c(=O)cc3-c3ccc(N4CC[C@@H](OC)C4)c(Cl)c3)cc2s1 [Example 12-1, (R)-1-(2-(bis(2-methoxyethyl)amino)benzo[d]thiazol-6-yl)-6-(3-chloro-4-(3-methoxypyrrolidin-1-yl)phenyl)-4-oxo-1,4-dihydropyridine-3-carboxylic acid] | < 8 | 11 |  | 
